These results are taken from patent US6514978B2, “Thromboresistant materials incorporating pyrazinone protease inhibitors” (3-Dimensional Pharmaceuticals, Inc., priority 1998, dated 2003).

Where a name gives a salt, the structure may show the parent alone.

The term Ki denotes a measure of affinity in units of concentration, obtained from inhibition or displacement. High values mean a looser hold on the target, low ones a stronger hold on the target.

The target in this test is T1, human α-thrombin (Homo sapiens, UniProt P00734).
T1 construct: Purified human α-thrombin; purchased Enzyme Research Laboratories (South Bend, Ind.)
In words: In vitro inhibition of purified enzymes: Ki determination, thrombin (hydrolysis of N-succinyl-Ala-Ala-Pro-Arg-p-nitroanilide). Format: biochemical. The following applies: purified human α-thrombin 0.5 nM, 50 mM HEPES, 200 mM NaCl, pH 7.5, 37° C., 4.3% DMSO. The source says:
Reagents: All buffer salts were obtained from Sigma Chemical Company (St. Louis, Mo.), and were of the highest purity avalable. The enzyme substrates, N-benzoyl-Phe—Val—Arg-p-nitroanilide (Sigma B7632), N-benzoyl-Ile—Glu—Gly—Arg-p-nitroanilide hydrochloride (Sigma B2291), N-p-Tosyl-Gly—Pro—Lys-p-nitroanilide (Sigma T6140), N-succinyl-Ala—Ala—Pro—Phe-p-nitroanilide (Sigma S7388) and N-CBZ-Val—Gly—Arg-p-nitroanilide (Sigma C7271) were obtained from Sigma.
Human α-thrombin, human factor Xa and human plasmin were obtained from Enzyme Research Laboratories (South Bend, Ind.). Bovine α-chymotrypsin (Sigma C4129), bovine trypsin (Sigma T8642) and human kidney cell urokinase (Sigma U5004) were obtained from Sigma. Human leukocyte elastase was obtained from Elastin Products (Pacific, Mo.).
Ki Determinations: All assays are based on the ability of the test compound to inhibit the enzyme catalyzed hydrolysis of a peptide-p-nitroanililide substrate. […] The final concentrations for each of the substrates is listed below. […] Dilutions are prepared in DMSO yielding 8 final concentrations encompassing a 200 fold concentration range. Enzyme solutions are prepared at the concentrations listed below in assay buffer.
Data corresponding to less than 10% of the total substrate hydrolysis were used in the calculations. The ratio of the velocity (rate of change in absorbance as a function of time) for a sample containing no test compound is divided by the velocity of a sample containing test compound, and is plotted as a function of test compound concentration. The data are fit to a linear regression, and the value of the slope of the line calculated. The inverse of the slope is the experimentally determined K value.
Thrombin: Thrombin activity was assessed as the ability to hydrolyze the substrate N-succinyl-Ala—Ala—Pro—Arg-p-nitroanilide. […] Final DMSO concentration was 4.3%. […] Final reagent concentrations were: [thrombin]=0.5 nM, [substrate N-succinyl-Ala—Ala—Pro—Arg-p-nitroanilide]=32 mM.

In turn, `Cc1cnc(NCCc2ccccc2)c(=O)n1CC(=O)NCCONC(=N)N` [Example 1, 1-{N-[2-(amidinoaminooxy)ethyl]amino}carbonylmethyl-6-methyl-3-(phenethylamino)-pyrazinone trifluoroacetate] displayed a Ki of 46 nM.

The compound `Cc1c(Cl)nc(NCCc2ccccc2)c(=O)n1CC(=O)NCCONC(=N)N` [Example 2, 1-{N-[2-(amidinoaminooxy)ethyl]amino}carbonylmethyl-5-chloro-6-methyl-3-(phenethylamino)-pyrazinone trifluoroacetate] came in with a Ki of 330 nM.

Compound `Cc1c(Cl)nc(NCC(c2ccccc2)c2ccccc2)c(=O)n1CC(=O)NCCONC(=N)N` [Example 4, 1-{N-[2-(amidinoaminooxy)ethyl]amino}carbonylmethyl-5-chloro-6-methyl-3-(2,2-diphenylethylamino)-pyrazinone trifluoroacetate] gave a Ki of 85 nM.

Consider `Cc1ccc(CCNc2ncc(C)n(CC(=O)NCCONC(=N)N)c2=O)cc1` [Example 5, 1-{N-[2-(amidinoaminooxy)ethyl]amino}carbonylmethyl-6-methyl-3-(4-methylphenethylamino)-pyrazinone trifluoroacetate], for which the Ki turned out to be 20 nM.
